Measured values published in US10919896B2, “Preparation and uses of pyrimidinone derivatives” (Cancer Research Technology Limited, priority 2016, dated 2021).

Tests used:
[1] = biological target: T1, Cdc7/ASK (Homo sapiens, UniProt O00311); experiment: Cdc7 Biochemical Assay Method 1: 384 well ELISA, whole protein substrate MCM2, antibody against Phospho MCM2 (S53); set-up: purchased; settings: 2 μM ATP, read-out: Biochemical Method 1 (pIC50) (converted)
Summary of the method: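 MCM2 protein substrate was coated on nickel-chelate plates, then Cdc7/ASK was added with 2 μM ATP in 50 mM Tris-HCl pH 8.5, 10 mM MgCl2, 1 mM DTT, 4% DMSO, 90 min at room temperature. Phospho-MCM2 (S53) was detected by ELISA with an AP secondary and PNPP absorbance. IC50 was derived from % inhibition versus no-compound and no-enzyme controls.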

[2] = biological target: T1, Cdc7/ASK; experiment: Cdc7 Biochemical Assay Method 2: 384 well mobility shift assay (EZ Reader II), MCM2 peptide substrate; set-up: purchased; settings: 12.5 μM ATP, read-out: Biochemical Method 2 (pIC50) (converted)
Experimental: This protocol describes a method for assaying Cdc7/ASK for activity. The assay is a 384 well mobility shift assay (MSA) run on the EZ Reader II microfluidics plate reader (Caliper LifeSciences), utilising a peptide substrate based on the MCM2 sequence. The assay technology is based on the change in mobility between the peptide substrate and the phosphorylated product. A 10 nL volume of the reaction mixture is sipped onto the microfluidic chip where the substrate and product are separated by electrophoresis and detected via laser-induced fluorescence (488 nm LED). The reaction can be monitored in real-time for kinetic experiments or as an end-point for IC50 determinations. The % conversion of substrate is calculated from peak heights of product (P) and substrate (S) peptides (% conversion=P/(P+S)*100).
• 10× Assay Buffer: 200 mM HEPES pH 8, 100 mM MgCl2, 0.1% v/v Triton X-100 and 15 mM DTT. Prepare fresh buffer from 1 M HEPES pH 8, 1 M MgCl2, 1 M DTT and 10% Triton x-100 stocks for each experiment. • Cdc7/ASK is purchased from commercial suppliers and used in the assay at a final assay concentration of 0.847 ng/μL or 9.2 nM. • MCM2 peptide is purchased from commercial suppliers and used in the assay at a final assay concentration of 2.5 μM. • ATP used in the assay at a final assay concentration of 12.5 μM. Methods • 1. Prepare intermediate (daughter) compound plate by transferring 2 μL of compound from the mother plate to 18 μL of 33.3% DMSO in a clear polypropylene plate. • 2. Dry-spot 1 μL of compound from the intermediate compound plate to empty assay plate. • 3. Add 5 μL of 1.694 ng/μL CDC7/ASK working solution to ‘test’ and ‘control’ wells or […] of 2× Assay Buffer to ‘blank’ wells. • 4. Add 4 μL 2.5 μM peptide/12.5 μM ATP working solution to all wells. • 5. Incubate at 37° C. for 1 hour then remove from the incubator and leave for a further 1 hour at room temperature. • 6. Place plate into an EZReader II to read.
Percentage inhibition values were calculated from % of substrate conversion values, using the no compound (DMSO) and no enzyme control values as 0% and 100% inhibition, respectively. IC50 determination was performed with ExcelFit software (IDBS) using curve fit 205. Z′ factors were determined for each plate tested and were all above 0.5.

T1 sequence (O00311 whole entry): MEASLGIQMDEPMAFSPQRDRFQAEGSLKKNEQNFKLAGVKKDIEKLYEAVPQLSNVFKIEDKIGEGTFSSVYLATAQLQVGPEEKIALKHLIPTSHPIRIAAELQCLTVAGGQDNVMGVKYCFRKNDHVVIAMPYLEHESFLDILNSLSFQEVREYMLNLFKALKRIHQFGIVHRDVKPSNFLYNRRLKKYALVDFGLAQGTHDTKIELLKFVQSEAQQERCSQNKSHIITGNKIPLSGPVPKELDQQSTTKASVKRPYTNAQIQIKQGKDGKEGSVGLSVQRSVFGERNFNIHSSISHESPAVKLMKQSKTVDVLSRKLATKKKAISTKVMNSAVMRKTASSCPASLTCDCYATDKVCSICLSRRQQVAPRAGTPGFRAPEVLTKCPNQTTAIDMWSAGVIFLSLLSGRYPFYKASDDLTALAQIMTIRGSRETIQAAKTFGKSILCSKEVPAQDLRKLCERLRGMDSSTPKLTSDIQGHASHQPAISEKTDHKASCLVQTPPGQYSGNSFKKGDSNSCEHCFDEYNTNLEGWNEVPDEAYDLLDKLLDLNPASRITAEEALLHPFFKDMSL
T1 sequence (Q9UBU7 whole entry partner): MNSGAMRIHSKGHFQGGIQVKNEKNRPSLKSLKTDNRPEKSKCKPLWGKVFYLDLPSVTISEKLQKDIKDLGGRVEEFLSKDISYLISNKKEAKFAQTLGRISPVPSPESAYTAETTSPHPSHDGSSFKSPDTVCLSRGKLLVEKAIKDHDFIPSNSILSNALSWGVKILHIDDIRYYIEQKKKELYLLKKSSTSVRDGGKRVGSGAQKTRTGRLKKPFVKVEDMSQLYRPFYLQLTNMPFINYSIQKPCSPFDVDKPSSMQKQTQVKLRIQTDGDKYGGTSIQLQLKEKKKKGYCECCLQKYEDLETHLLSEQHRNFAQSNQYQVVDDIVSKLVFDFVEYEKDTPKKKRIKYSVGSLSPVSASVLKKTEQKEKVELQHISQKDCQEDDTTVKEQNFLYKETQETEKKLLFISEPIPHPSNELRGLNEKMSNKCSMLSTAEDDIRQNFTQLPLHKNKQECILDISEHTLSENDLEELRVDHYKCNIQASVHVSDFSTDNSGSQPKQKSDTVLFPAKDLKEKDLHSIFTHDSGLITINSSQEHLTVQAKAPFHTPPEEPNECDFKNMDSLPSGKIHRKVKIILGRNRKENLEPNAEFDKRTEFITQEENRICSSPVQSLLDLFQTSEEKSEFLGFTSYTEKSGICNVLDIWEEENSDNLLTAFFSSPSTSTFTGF

Row | SMILES | IC50 [1] | IC50 [2]
1 | O=c1[nH]c(-c2ccnc(F)c2)nc(N2CCCC(F)(F)C2)c1Cl [Compound 90, 5-chloro-4-(3,3-difluoro-1-piperidyl)-2-(2-fluoro-4-pyridyl)-1H-pyrimidin-6-one] | 0.851 nM | –
2 | C[C@H]1CN(c2nc(-c3ccncc3)[nH]c(=O)c2Cl)CCN1 [Compound 130] | 2.57 nM | –
3 | O=c1[nH]c(-c2ccncc2)nc(N2CCN[C@H](C(F)(F)F)C2)c1Cl [Compound 139] | 9.55 nM | –
4 | O=c1[nH]c(-c2ccncc2)nc(N2CCN(CC(F)F)CC2)c1Cl [Compound 147] | 4.27 nM | –
5 | CC(C)[C@H]1CN(c2nc(-c3ccnc(F)c3)[nH]c(=O)c2Cl)CCN1 [Compound 170] | 1.1 nM | 1.17 nM
6 | O=c1[nH]c(-c2ccncc2)nc(N2CCN[C@@H](C(F)(F)F)C2)c1Cl [Compound 180] | 1.45 nM | –
7 | CC(C)(C)[C@H]1CN(c2nc(-c3ccncc3)[nH]c(=O)c2F)CCN1 [Compound 185] | 0.776 nM | 0.776 nM
8 | O=c1[nH]c(-c2ccncc2)nc(N2CCCOCC2)c1Cl [Compound 186] | 3.09 nM | 3.89 nM
9 | CC(C)[C@H]1CN(c2nc(-c3ccncc3)[nH]c(=O)c2F)CCN1 [Compound 308] | 0.794 nM | 0.912 nM
10 | O=c1[nH]c(-c2ccnc(F)c2)nc(N2CCN[C@@H](C(F)(F)F)C2)c1Cl [Compound 314] | 1.12 nM | 0.575 nM

Continued, values first:

Row | IC50 [1] | IC50 [2] | SMILES
11 | 1.32 nM | – | O=c1[nH]c(-c2ccnc(F)c2)nc(N2CCOCC2)c1Cl [Compound 316]
12 | – | 1.02 nM | N[C@H]1CCCN(c2nc(-c3ccnc(F)c3)[nH]c(=O)c2Cl)C1 [Compound 317]
13 | – | 1.51 nM | N[C@@H]1CCCN(c2nc(-c3ccnc(F)c3)[nH]c(=O)c2Cl)C1 [Compound 319]
14 | – | 0.575 nM | C[C@@H]1CNCCN1c1nc(-c2ccnc(F)c2)[nH]c(=O)c1Cl [Compound 323]
15 | 1.51 nM | – | O=c1[nH]c(-c2ccnc(F)c2)nc(N2CCNCC2)c1Cl [Compound 360]
16 | 1.66 nM | 0.741 nM | NC[C@H]1CCCN(c2nc(-c3ccnc(F)c3)[nH]c(=O)c2Cl)C1 [Compound 362]
17 | 4.68 nM | 1.78 nM | NC[C@@H]1CCCN(c2nc(-c3ccnc(F)c3)[nH]c(=O)c2Cl)C1 [Compound 363]
18 | 0.389 nM | 0.501 nM | C[C@@H]1CNCCN1c1nc(-c2ccncc2)[nH]c(=O)c1Cl [Compound 364]
